The source of these data is US10190119B2, “Mitochondrial phosphate carrier targets for treating soft-tissue calcification” (THE BRIGHAM AND WOMEN'S HOSPITAL, INC., priority 2014, dated 2019).

Each structure is given as a SMILES string.

For the experiment, the system named is calcifying extracellular vesicles (EVs). As to the kind of experiment: Aggregation of calcifying extracellular vesicles in a particle counting device. Particulars: 100 μM NEM, vesicles from smooth muscle cells cultured in calcifying conditions, cell-free, 37° C., FIG. 5. As for the experimental part:
Calcification has been previously linked to aggregation of extracellular vesicles. Therefore, vesicles were collected from smooth muscle cells cultured in calcifying conditions and incubated in cell-free conditions at 37° C. within a particle counting device. […] Aggregation of calcifying vesicles was observed by a reduction in total particles counted from 8 h to 20 h of incubation, as shown in FIG. 5. […] Without wishing to be bound by theory, it is hypothesized that this reduction is due to the inhibition of phosphate carriers on the vesicles, which blocks phosphate transport into the vesicles, and in turn preventing mineral formation.

On to `CCN1C(=O)C=CC1=O` [NEM, N-ethylmaleimide], for which the “reduction in total particles (vesicle counts) from 8 h to 20 h of incubation” value is on record as “mitigated the reduction in vesicle counts”.
